In ChEMBL document CHEMBL6109132, “Potent and Selective Human Constitutive Androstane Receptor Activator DL5055 Facilitates Cyclophosphamide-Based Chemotherapies” (J Med Chem, 2025):

target: T1, Nuclear receptor subfamily 1 group I member 3 (Homo sapiens, UniProt Q14994); test: Agonist activity at human CAR expressed in human HepG2 cells co-expressing CYP2B6 incubated for 23 hrs by Luciferase reporter gene assay; format: cell-based; details: not given
T1 sequence (Q14994 whole entry): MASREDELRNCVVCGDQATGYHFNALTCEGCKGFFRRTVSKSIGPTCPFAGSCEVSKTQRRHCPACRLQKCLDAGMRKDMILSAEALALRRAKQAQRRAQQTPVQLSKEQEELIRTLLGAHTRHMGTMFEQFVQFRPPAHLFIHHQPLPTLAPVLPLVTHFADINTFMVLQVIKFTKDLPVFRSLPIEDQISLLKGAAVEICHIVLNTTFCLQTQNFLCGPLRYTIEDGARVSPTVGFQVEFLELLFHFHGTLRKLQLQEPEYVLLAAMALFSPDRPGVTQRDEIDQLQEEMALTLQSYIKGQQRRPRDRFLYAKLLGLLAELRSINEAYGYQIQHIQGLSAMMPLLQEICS

Row | Structure (SMILES) | EC50 [nM]
1 | c1ccc2c(c1)CC(NCc1c(-c3ccc4ccccc4c3)nc3occn13)C2 | 670
2 | O=C(N[C@H]1C[C@H](c2ccccc2)C1)c1c(-c2ccc3ccccc3c2)nc2occn12 | 1100
3 | O=C(NCCc1ccc(Br)cc1)c1c(-c2ccc3ccccc3c2)nc2occn12 | 3500
4 | O=C(Nc1c(-c2ccc3ccccc3c2)nc2occn12)C1Cc2ccccc2C1 | 1200
5 | Cc1ccccc1CCNC(=O)c1c(-c2ccc3ccccc3c2)nc2occn12 | 830
6 | O=C(OC1Cc2ccccc2C1)c1c(-c2ccc3ccccc3c2)nc2occn12 | 380
7 | O=C(N[C@H]1C[C@@H](c2ccccc2)C1)c1c(-c2ccc3ccccc3c2)nc2occn12 | 330
8 | O=C(NOCc1ccccc1)c1c(-c2ccc3ccccc3c2)nc2occn12 | 4400
9 | O=C(NOCc1ccc(Cl)c(Cl)c1)c1c(-c2ccc3ccccc3c2)nc2occn12 | 350
10 | O=C(NCC1Cc2ccccc2C1)c1c(-c2ccc(F)cc2F)nc2occn12 | 1900
11 | O=C(NCC1Cc2ccccc2C1)c1c(-c2ccc3ccccc3c2)nc2occn12 | 210

More lines, now with the values ahead:

Row | EC50 [nM] | Structure (SMILES)
12 | 440 | O=C(NC1Cc2ccccc2C1)c1c(-c2ccc(F)cc2F)nc2occn12
13 | > 100000 | O=C(NC1Cc2ccccc2C1)c1c(CCc2ccccc2)nc2occn12
14 | 750 | O=C(NC1Cc2ccccc2C1)c1c(-c2ccc3c(c2)OCCO3)nc2occn12
15 | 18000 | O=C(NC1Cc2ccccc2C1)c1c(-c2ccc(F)c(C(F)(F)F)c2)nc2occn12
16 | 380 | O=C(NC1Cc2ccccc2C1)c1c(-c2ccc(Cl)cc2)nc2occn12

target: T2, Nuclear receptor subfamily 1 group I member 2 (Homo sapiens, UniProt O75469); test: Activation of human PXR expressed in human HepG2 cells assessed as increase in CYP3A4 mRNA level at >1 uM incubated for 24 hrs by luciferase based analysis; format: cell-based; details: hepg2, 24 h
T2 sequence (O75469 whole entry): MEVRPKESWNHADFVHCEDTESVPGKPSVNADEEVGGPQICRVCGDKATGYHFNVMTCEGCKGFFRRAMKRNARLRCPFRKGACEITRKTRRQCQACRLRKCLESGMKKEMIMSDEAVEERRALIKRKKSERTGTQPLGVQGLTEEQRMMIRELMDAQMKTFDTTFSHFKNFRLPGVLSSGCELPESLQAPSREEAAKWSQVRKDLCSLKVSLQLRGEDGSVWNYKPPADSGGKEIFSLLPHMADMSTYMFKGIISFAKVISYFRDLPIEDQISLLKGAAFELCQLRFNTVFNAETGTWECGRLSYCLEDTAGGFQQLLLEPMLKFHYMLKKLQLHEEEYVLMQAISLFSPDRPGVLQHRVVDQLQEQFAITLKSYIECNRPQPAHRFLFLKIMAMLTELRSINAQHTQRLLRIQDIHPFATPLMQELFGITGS

Row | Structure (SMILES) | Activity
17 | c1ccc2c(c1)CC(NCc1c(-c3ccc4ccccc4c3)nc3occn13)C2 | Active
18 | Clc1ccc(-c2nc3sccn3c2/C=N/OCc2ccc(Cl)c(Cl)c2)cc1 | Active
